{"source": "patent US12144819B2", "about": "“Pharmaceutical composition and use” (SpineThera, priority 2012, dated 2024)", "key": {"[1]": {"assay": "In-vitro elution of the API from the microparticles in PBS", "format": "physicochemical", "protocol": "In-vitro elution of the API from the microparticles can be determined by adding a known amount of the microparticles to 5 mL phosphate buffered saline (PBS) solution at a pH 7.4, and maintaining a constant temperature of 37° C. At selected time intervals, a 2 mL aliquot can be withdrawn through a 0.4 μm filter for analysis; the amount of the aliquot withdrawn can be replenished with an equal amount of preheated PBS. The concentration of the API in the aliquot can be determined according to known methods such as HPLC. Sampling intervals can be adjusted to maintain drug concentration below sink conditions in the test vials."}, "[2]": {"assay": "Epidural administration in canine subjects using fluoroscopically-guided injection", "format": "in vivo, beagles", "conditions": "for drug released in-vivo (elution profile): procedure A1 microparticles", "from_the_text": "This exemplary approach is a modified version of that described by Cohen (vide supra). Male and female beagles can be acclimated and subjected to baseline neurologic and clinical chemistry examinations. Prior to treatment dogs can be anesthetized with propofol. The injection site can be shaved, and a 19-gauge epidural Touhy needle can be inserted at the L6-7 or L7-S1 interspace. A 22-gauge catheter can be threaded 8-10 cm to approximately the L2-L3 level. The position of the catheter can be verified by injection of contrast media under fluoroscopy. Two (2) mL of an aqueous suspension of microparticles, prepared according to procedure A1 above, can be injected over a period of about 2 minutes. After about 10 minutes the catheter can be removed. Before and after surgery, subject baseline measurements can be obtained, including, for example, temperature and specific behavioral measures (pain tolerance, reflex, mobility, etc.). Before injection, and every 2 days after injection for 84 days, heart rate, blood pressure in the tail, spinal reflexes, sensory and pain responses, proprioception, gait and movement, cranial nerve function, and fundoscopic examination data can be recorded to observe the safety of the injected pharmaceutical composition. Blood samples can be collected prior to injection, then at 1, 2, 4, 8, 24, and 72 hour intervals after injection, and every 7 days thereafter to analyze for the pharmaceutical agent and its metabolized forms. At scheduled intervals, necropsy and histopathology can be performed as described by Cohen, vide supra, in a sub-set of animals.\nWithout wishing to be bound by theory, pharmaceutical compositions of the type described herein are not expected to elicit any significant or appreciable degree of inflammatory response or cause necrosis. Histological examination may reveal the microparticles to be localized and agglomerated within the epidural space at the site of injection with no evidence of the presence of the injection vehicle after 2 about days. Contents of the treated epidural pocket can be recovered by dissection. The injected microparticles can be isolated from epidural tissue and assayed for drug concentration to determine an in-vivo elution profile. It can be reasonably expected that dexamethasone acetate will be released continuously over 12 weeks, with about 20% of the drug released in 3 days, 50% in 25 days, and 80% in 70 days, with complete microparticle polymer degradation in about 16 weeks."}}, "data": [{"substance": "9 alpha-fluoro-11-beta, 17-alpha, 21-trihydroxy-16 alpha-methylpregna-1,4-diene-3,20-dione 21-acetate [dexamethasone acetate]", "values": [{"measurement": "duration of continuous release in-vitro", "setting": "[1]", "result": 12, "unit": "weeks"}, {"measurement": "drug released in-vitro", "setting": "[1]; in 3 days", "result": "about 10%"}, {"measurement": "drug released in-vitro", "setting": "[1]; in 25 days", "result": "~25", "unit": "%"}, {"measurement": "drug released in-vitro", "setting": "[1]; in 70 days", "result": "~40", "unit": "%"}, {"measurement": "duration of continuous release in-vivo", "setting": "[2]", "result": 12, "unit": "weeks"}, {"measurement": "time to complete microparticle polymer degradation", "setting": "[2]", "result": "about 16 weeks"}, {"measurement": "drug released in-vivo (elution profile)", "setting": "[2]; in 3 days", "result": "about 20%"}, {"measurement": "drug released in-vivo (elution profile)", "setting": "[2]; in 25 days", "result": "~50", "unit": "%"}, {"measurement": "drug released in-vivo (elution profile)", "setting": "[2]; in 70 days", "result": "~80", "unit": "%"}]}]}
